Test: Particle size result of micronised salbutamol sulphate
Type: physicochemical

- Particle size result: MMD (Mass Mean Diameter): =2.53 μm.
- Particle size result: fraction of particles >1 μm: 90.17%
- Particle size result: size below which 90% of particles lie: <5.48 μm
Substance: Salbutamol Sulphate
